Patent US11472791B2 (Incyte Corporation, priority 2019, dated 2022)
pIC50: −log10 of the molar value.

Target: CDK2/Cyclin E1 (Homo sapiens (Human), UniProt P24941)
Experiment: CDK2/Cyclin E1 HTRF enzyme activity assay
Type: biochemical
Details: 1 mM ATP
Method: Assays are conducted in white 384-well polystyrene plates in a final reaction volume of 8 μL. […] HTRF signals are read after 1 hour at room temperature on a PHERAstar FS plate reader (BMG Labtech). Data is analyzed with IDBS XLFit and GraphPad Prism 5.0 software using a three or four parameter dose response curve to determine IC50 for each compound.

pIC50, > 7.30:
CS(=O)(=O)N1CCC(Nc2ncc(C#N)c(-c3cnn(-c4ccc(CN[C@@H]5CCCOC5)cc4Cl)c3)n2)CC1 [Example 195, (R)-4-(1-(2-Chloro-4-(((tetrahydro-2H-pyran-3-yl)amino)methyl)phenyl)-1H-pyrazol-4-yl)-2-((1-(methylsulfonyl)piperidin-4-yl)amino)pyrimidine-5-carbonitrile]
CS(=O)(=O)N1CCC(Nc2ncc(C#N)c(-c3cnn(-c4ccc(CN[C@H]5CCCOC5)cc4Cl)c3)n2)CC1 [Example 196, (S)-4-(1-(2-Chloro-4-(((tetrahydro-2H-pyran-3-yl)amino)methyl)phenyl)-1H-pyrazol-4-yl)-2-((1-(methylsulfonyl)piperidin-4-yl)amino)pyrimidine-5-carbonitrile]
CCOC(=O)N1CCC(NCc2ccc(-n3cc(-c4nc(NC5CCN(S(C)(=O)=O)CC5)ncc4C#N)cn3)c(Cl)c2)CC1 [Example 197, Ethyl 4-((3-chloro-4-(4-(5-cyano-2-((1-(methylsulfonyl)piperidin-4-yl)amino)pyrimidin-4-yl)-1H-pyrazol-1-yl)benzyl)amino)piperidine-1-carboxylate]
CS(=O)(=O)N1CCC(Nc2ncc(C#N)c(-c3cnn(-c4ccc(CNCCOC(F)(F)F)cc4Cl)c3)n2)CC1 [Example 199, 4-(1-(2-Chloro-4-(((2-(trifluoromethoxy)ethyl)amino)methyl)phenyl)-1H-pyrazol-4-yl)-2-((1-(methylsulfonyl)piperidin-4-yl)amino)pyrimidine-5-carbonitrile]
CS(=O)(=O)CCNCc1ccc(-n2cc(-c3nc(NC4CCN(S(C)(=O)=O)CC4)ncc3C#N)cn2)c(Cl)c1 [Example 200, 4-(1-(2-Chloro-4-(((2-(methylsulfonyl)ethyl)amino)methyl)phenyl)-1H-pyrazol-4-yl)-2-((1-(methylsulfonyl)piperidin-4-yl)amino)pyrimidine-5-carbonitrile]
CC(C)(O)Cn1cc(-c2nc(N[C@H]3CCN(S(=O)(=O)CCCN4CCOCC4)C[C@H]3F)ncc2C(F)(F)F)cn1 [Example 201, 1-(4-(2-(((3R,4S)-3-Fluoro-1-((3-morpholinopropyl)sulfonyl)piperidin-4-yl)amino)-5-(trifluoromethyl)pyrimidin-4-yl)-1H-pyrazol-1-yl)-2-methylpropan-2-ol]
CCN(CC)CCCS(=O)(=O)N1CC[C@H](Nc2ncc(C(F)(F)F)c(-c3cnn(CC(C)(C)O)c3)n2)[C@H](F)C1 [Example 202, 1-(4-(2-(((3R,4S)-1-((3-(Diethylamino)propyl)sulfonyl)-3-fluoropiperidin-4-yl)amino)-5-(trifluoromethyl)pyrimidin-4-yl)-1H-pyrazol-1-yl)-2-methylpropan-2-ol]
CC(C)(O)Cn1cc(-c2nc(N[C@H]3CCN(S(=O)(=O)CCCN4CCCC4)C[C@H]3F)ncc2C(F)(F)F)cn1 [Example 203, 1-(4-(2-(((3R,4S)-3-Fluoro-1-((3-(pyrrolidin-1-yl)propyl)sulfonyl)piperidin-4-yl)amino)-5-(trifluoromethyl)pyrimidin-4-yl)-1H-pyrazol-1-yl)-2-methylpropan-2-ol]
CC(C)(O)Cn1cc(-c2nc(N[C@H]3CCN(S(=O)(=O)CCCN4CCCCC4)C[C@H]3F)ncc2C(F)(F)F)cn1 [Example 204, 1-(4-(2-(((3R,4S)-3-Fluoro-1-((3-(piperidin-1-yl)propyl)sulfonyl)piperidin-4-yl)amino)-5-(trifluoromethyl)pyrimidin-4-yl)-1H-pyrazol-1-yl)-2-methylpropan-2-ol]
CN(C)CCCS(=O)(=O)N1CC[C@H](Nc2ncc(C(F)(F)F)c(-c3cnn(CC(C)(C)O)c3)n2)[C@H](F)C1 [Example 205, 1-(4-(2-(((3R,4S)-1-((3-(Dimethylamino)propyl)sulfonyl)-3-fluoropiperidin-4-yl)amino)-5-(trifluoromethyl)pyrimidin-4-yl)-1H-pyrazol-1-yl)-2-methylpropan-2-ol]
CO[C@@H]1CCN(CCCS(=O)(=O)N2CC[C@H](Nc3ncc(C(F)(F)F)c(-c4cnn(CC(C)(C)O)c4)n3)[C@H](F)C2)C1 [Example 206, 1-(4-(2-(((3R,4S)-3-Fluoro-1-((3-((R)-3-methoxypyrrolidin-1-yl)propyl)sulfonyl)piperidin-4-yl)amino)-5-(trifluoromethyl)pyrimidin-4-yl)-1H-pyrazol-1-yl)-2-methylpropan-2-ol]
COC1CCN(CCCS(=O)(=O)N2CC[C@H](Nc3ncc(C(F)(F)F)c(-c4cnn(CC(C)(C)O)c4)n3)[C@H](F)C2)CC1 [Example 207, 1-(4-(2-(((3R,4S)-3-Fluoro-1-((3-(4-methoxypiperidin-1-yl)propyl)sulfonyl)piperidin-4-yl)amino)-5-(trifluoromethyl)pyrimidin-4-yl)-1H-pyrazol-1-yl)-2-methylpropan-2-ol]
CC(C)(O)Cn1cc(-c2nc(N[C@H]3CCN(S(=O)(=O)CCCN4CCC(O)CC4)C[C@H]3F)ncc2C(F)(F)F)cn1 [Example 208, 1-(3-(((3R,4S)-3-Fluoro-4-((4-(1-(2-hydroxy-2-methylpropyl)-1H-pyrazol-4-yl)-5-(trifluoromethyl)pyrimidin-2-yl)amino)piperidin-1-yl)sulfonyl)propyl)piperidin-4-ol]
CN1CCN(CCCS(=O)(=O)N2CC[C@H](Nc3ncc(C(F)(F)F)c(-c4cnn(CC(C)(C)O)c4)n3)[C@H](F)C2)CC1 [Example 209, 1-(4-(2-(((3R,4S)-3-Fluoro-1-((3-(4-methylpiperazin-1-yl)propyl)sulfonyl)piperidin-4-yl)amino)-5-(trifluoromethyl)pyrimidin-4-yl)-1H-pyrazol-1-yl)-2-methylpropan-2-ol]
CCN1CCN(CCCS(=O)(=O)N2CC[C@H](Nc3ncc(C(F)(F)F)c(-c4cnn(CC(C)(C)O)c4)n3)[C@H](F)C2)CC1 [Example 210, 1-(4-(2-(((3R,45)-1-((3-(4-Ethylpiperazin-1-yl)propyl)sulfonyl)-3-fluoropiperidin-4-yl)amino)-5-(trifluoromethyl)pyrimidin-4-yl)-1H-pyrazol-1-yl)-2-methylpropan-2-ol]
CN1C[C@@H]2C[C@H]1CN2CCCS(=O)(=O)N1CC[C@H](Nc2ncc(C(F)(F)F)c(-c3cnn(CC(C)(C)O)c3)n2)[C@H](F)C1 [Example 211, 1-(4-(2-(((3R,4S)-3-Fluoro-1-((3-((1S,4S)-5-methyl-2,5-diazabicyclo[2.2.1]heptan-2-yl)propyl)sulfonyl)piperidin-4-yl)amino)-5-(trifluoromethyl)pyrimidin-4-yl)-1H-pyrazol-1-yl)-2-methylpropan-2-ol]
CN1CCN(CCCS(=O)(=O)N2CC[C@H](Nc3ncc(C(F)(F)F)c(-c4cnn(CC(C)(C)O)c4)n3)[C@H](F)C2)CC1=O [Example 212, 4-(3-(((3R,4S)-3-Fluoro-4-((4-(1-(2-hydroxy-2-methylpropyl)-1H-pyrazol-4-yl)-5-(trifluoromethyl)pyrimidin-2-yl)amino)piperidin-1-yl)sulfonyl)propyl)-1-methylpiperazin-2-one]
CCN(CC)CCCS(=O)(=O)N1CCC(Nc2ncc(C#N)c(-c3cnn(CC(C)(C)O)c3)n2)CC1 [Example 213, 2-((1-((3-(Diethylamino)propyl)sulfonyl)piperidin-4-yl)amino)-4-(1-(2-hydroxy-2-methylpropyl)-1H-pyrazol-4-yl)pyrimidine-5-carbonitrile]
CC(C)(O)Cn1cc(-c2nc(NC3CCN(S(=O)(=O)CCCN4CCCC4)CC3)ncc2C#N)cn1 [Example 214, 4-(1-(2-Hydroxy-2-methylpropyl)-1H-pyrazol-4-yl)-2-((1-((3-(pyrrolidin-1-yl)propyl)sulfonyl)piperidin-4-yl)amino)pyrimidine-5-carbonitrile]
CC(C)(O)Cn1cc(-c2nc(NC3CCN(S(=O)(=O)CCCN4CCCCC4)CC3)ncc2C#N)cn1 [Example 215, 4-(1-(2-Hydroxy-2-methylpropyl)-1H-pyrazol-4-yl)-2-((1-((3-(piperidin-1-yl)propyl)sulfonyl)piperidin-4-yl)amino)pyrimidine-5-carbonitrile]
CCN(CC)CCCCS(=O)(=O)N1CCC(Nc2ncc(C#N)c(-c3cnn(CC(C)(C)O)c3)n2)CC1 [Example 216, 2-((1-((4-(Diethylamino)butyl)sulfonyl)piperidin-4-yl)amino)-4-(1-(2-hydroxy-2-methylpropyl)-1H-pyrazol-4-yl)pyrimidine-5-carbonitrile]
CC(C)(O)Cn1cc(-c2nc(NC3CCN(S(=O)(=O)CCCCN4CCCC4)CC3)ncc2C#N)cn1 [Example 217, 4-(1-(2-Hydroxy-2-methylpropyl)-1H-pyrazol-4-yl)-2-((1-((4-(pyrrolidin-1-yl)butyl)sulfonyl)piperidin-4-yl)amino)pyrimidine-5-carbonitrile]
CC(C)(O)Cn1cc(-c2nc(NC3CCN(S(=O)(=O)CCCCN4CCCCC4)CC3)ncc2C#N)cn1 [Example 218, 4-(1-(2-Hydroxy-2-methylpropyl)-1H-pyrazol-4-yl)-2-((1-((4-(piperidin-1-yl)butyl)sulfonyl)piperidin-4-yl)amino)pyrimidine-5-carbonitrile]
CO[C@H]1CCN(CCCS(=O)(=O)N2CCC(Nc3ncc(C(F)(F)F)c(-c4cnn(CC(C)(C)O)c4)n3)CC2)C1 [Example 219, (S)-1-(4-(2-((1-((3-(3-Methoxypyrrolidin-1-yl)propyl)sulfonyl)piperidin-4-yl)amino)-5-(trifluoromethyl)pyrimidin-4-yl)-1H-pyrazol-1-yl)-2-methylpropan-2-ol]
CO[C@@H]1CCN(CCCS(=O)(=O)N2CCC(Nc3ncc(C(F)(F)F)c(-c4cnn(CC(C)(C)O)c4)n3)CC2)C1 [Example 220, (R)-1-(4-(2-((1-((3-(3-Methoxypyrrolidin-1-yl)propyl)sulfonyl)piperidin-4-yl)amino)-5-(trifluoromethyl)pyrimidin-4-yl)-1H-pyrazol-1-yl)-2-methylpropan-2-ol]
